One assay concerns the target T1, c-Kit(V654A) (Homo sapiens, UniProt P10721, V654A).
T1 construct: amino acids 544-end containing the V654A mutation; GST (N)
Put plainly: c-Kit(V654A) assay. Format: biochemical. The note with it: recombinant human c-Kit aa 544-end, 200 μM ATP, 1.4E-06 means 1.4×10^−6, read-out: Inhibition (IC50) of c-KIT (V654A). Put shortly: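 Radiometric filter-binding read-out: substrate 33P incorporation counted by scintillation after P30 filtermat washes in 75 mM phosphoric acid and methanol. Enzyme: N-GST recombinant human c-Kit aa 544-end carrying V654A.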

Another assay has as its target T2, PDGFRalpha(V561D) (Homo sapiens, UniProt P16234, V561D).
T2 construct: recombinant human PDGFRalpha, amino acids 550end containing the V561 D mutation; 6His (N)
In words: PDGFRalpha(V561D) assay. Format: biochemical. The note with it: recombinant human PDGFRalpha aa 550-end, 200 μM ATP, 1.4E-06 means 1.4×10^−6, read-out: Inhibition (IC50) of PDGFRα (V561D). Put shortly: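 Radiometric filter-binding assay: substrate phosphorylation by recombinant N-His-tagged human PDGFRα 550-end V561D was quenched with 3% phosphoric acid after 40 min at room temperature, then counted.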

SMILES strings stand for the structures. Structures can show the parent of a compound that is named as a salt.

T2 sequence (P16234 550-1089 V561D): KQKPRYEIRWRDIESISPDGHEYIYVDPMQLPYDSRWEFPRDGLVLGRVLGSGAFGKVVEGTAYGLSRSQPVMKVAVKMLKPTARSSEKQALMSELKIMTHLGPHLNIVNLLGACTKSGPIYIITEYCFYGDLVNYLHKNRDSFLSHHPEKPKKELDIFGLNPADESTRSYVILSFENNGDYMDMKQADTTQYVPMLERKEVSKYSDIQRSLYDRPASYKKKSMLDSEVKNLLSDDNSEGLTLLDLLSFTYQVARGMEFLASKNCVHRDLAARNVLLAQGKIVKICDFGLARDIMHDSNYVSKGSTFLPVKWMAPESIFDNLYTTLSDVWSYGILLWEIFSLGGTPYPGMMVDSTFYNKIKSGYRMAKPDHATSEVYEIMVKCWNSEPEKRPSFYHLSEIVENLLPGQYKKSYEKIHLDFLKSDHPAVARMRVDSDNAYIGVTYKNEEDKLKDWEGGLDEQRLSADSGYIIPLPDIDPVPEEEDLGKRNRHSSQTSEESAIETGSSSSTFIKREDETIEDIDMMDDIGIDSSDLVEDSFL
T1 sequence (P10721 544-976 V654A): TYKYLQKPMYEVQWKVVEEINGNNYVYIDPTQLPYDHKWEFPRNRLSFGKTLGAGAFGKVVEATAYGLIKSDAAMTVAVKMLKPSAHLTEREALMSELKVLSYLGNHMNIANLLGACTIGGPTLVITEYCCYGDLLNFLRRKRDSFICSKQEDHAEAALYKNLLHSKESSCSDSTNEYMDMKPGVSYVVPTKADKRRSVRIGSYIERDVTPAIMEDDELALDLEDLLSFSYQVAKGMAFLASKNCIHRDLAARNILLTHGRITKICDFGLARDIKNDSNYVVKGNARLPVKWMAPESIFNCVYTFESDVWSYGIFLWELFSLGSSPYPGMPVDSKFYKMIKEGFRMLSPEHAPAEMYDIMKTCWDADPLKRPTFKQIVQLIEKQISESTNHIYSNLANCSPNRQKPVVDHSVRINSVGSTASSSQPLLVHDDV

In general, IC50 refers to the concentration needed to halve the response being measured. For `CN(C)C[C@H]1CCCN1C(=O)c1ccc(-n2cc(-c3cc4cc(F)c(F)cc4[nH]c3=O)nn2)cc1` [A320, 3-{1-[4-((R)-2-dimethylaminomethyl-pyrrolidine-1-carbonyl)-phenyl]-1H-[1,2,3]triazol-4-yl}-6,7-difluoro-1H-quinolin-2-one], the IC50 at c-Kit(V654A) was 48 nM; on PDGFRalpha(V561D), 99 nM.
For the compound `CC(=O)N1CCN(CCOc2ccc(-n3cc(-c4cc5cc(F)ccc5[nH]c4=O)nn3)cc2)CC1` [A100a, 3-(1-{4-[2-(4-acetyl-piperazin-1-yl)-ethoxy]-phenyl}-1H-[1,2,3]triazol-4-yl)-6-fluoro-1H-quinolin-2-one], the IC50 came to 18 nM on c-Kit(V654A) and 54 nM on PDGFRalpha(V561D).
Take `O=C(c1ccc(-n2cc(-c3cc4cc(F)ccc4[nH]c3=O)nn2)cc1)N1CCN[C@@H](CO)C1` [A314, 6-fluoro-3-{1-[4-((R)-3-hydroxymethyl-piperazine-1-carbonyl)-phenyl]-1H-[1,2,3]triazol-4-yl}-1H-quinolin-2-one hydrochloride]: the IC50 at c-Kit(V654A) was 72 nM; at PDGFRalpha(V561D), 180 nM.
For `CN1CCC(COc2ccc(-n3cc(-c4cc5ccccc5[nH]c4=O)nn3)cc2)CC1` [A60, 3-{1-[4-(1-methyl-piperidin-4-ylmethoxy)-phenyl]-1H-[1,2,3]triazol-4-yl}-1H-quinolin-2-one], the concentration for half-maximal inhibition (IC50) was determined as 38 nM on c-Kit(V654A) and 33 nM on PDGFRalpha(V561D).
On to `O=C(c1ccc(-n2cc(-c3cc4cc(Cl)ccc4[nH]c3=O)nn2)cc1)N1CCC(F)(F)C1` [A268, 6-chloro-3-{1-[4-(3,3-difluoro-pyrrolidine-1-carbonyl)-phenyl]-1H-[1,2,3]triazol-4-yl}-1H-quinolin-2-one], for which the IC50 at c-Kit(V654A) amounted to 16 nM; on PDGFRalpha(V561D), 0.67 nM.
On the same counts, the results for `CO[C@@H]1CCN(C(=O)c2ccc(-n3cc(-c4cc5cc(F)ccc5[nH]c4=O)cn3)cc2)C1` [A298, 6-fluoro-3-{1-[4-((R)-3-methoxy-pyrrolidine-1-carbonyl)-phenyl]-1H-pyrazol-4-yl}-1H-quinolin-2-one] are 41 nM and 21 nM.
Turning to `NC1CCN(C(=O)c2ccc(-n3cc(-c4cc5cc(F)ccc5[nH]c4=O)nn3)cc2)C1` (stereo in doubt) [A306, 3-{1-[4-((S)-3-amino-pyrrolidine-1-carbonyl)-phenyl]-1H-[1,2,3]triazol-4-yl}-6-fluoro-1H-quinolin-2-one], the IC50 at c-Kit(V654A) is 45 nM; at PDGFRalpha(V561D), 240 nM.
As to `O=c1[nH]c2ccccc2cc1-c1cn(-c2ccc(OCCN3CCOCC3)cc2)nn1` [A26, 3-{1-[4-(2-morpholin-4-yl-ethoxy)-phenyl]-1H-[1,2,3]triazol-4-yl}-1H-quinolin-2-one], the IC50 at c-Kit(V654A) was found to be 15 nM; on PDGFRalpha(V561D) it was 10 nM.
The corresponding values for `O=C1CNCCN1c1ccc(-n2cc(-c3cc4cc(F)c(F)cc4[nH]c3=O)nn2)cc1` [A145, 6,7-difluoro-3-{1-[4-(2-oxo-piperazin-1-yl)-phenyl]-1H-[1,2,3]triazol-4-yl}-1H-quinolin-2-one] are 22 nM and 180 nM.
Turning to `NC1CCN(C(=O)c2ccc(-n3cc(-c4cc5cc(F)ccc5[nH]c4=O)nn3)cc2)CC1` [A144, 3-{1-[4-(4-amino-piperidine-1-carbonyl)-phenyl]-1H-[1,2,3]triazol-4-yl}-6-fluoro-1H-quinolin-2-one], the IC50 was 12 nM at c-Kit(V654A) and 170 nM on PDGFRalpha(V561D).
As for `O=C(c1ccc(-n2cc(-c3cc4cc(Cl)ccc4[nH]c3=O)nn2)cc1)N1CCC2(CC1)COC2` [A256, 6-chloro-3-{1-[4-(2-oxa-7-aza-spiro[3.5]nonane-7-carbonyl)-phenyl]-1H-[1,2,3]triazol-4-yl}-1H-quinolin-2-one], the figures for the IC50 on c-Kit(V654A) and on PDGFRalpha(V561D) were 27 nM and 4.3 nM, respectively.
For the compound `O=c1[nH]c2ccncc2cc1-c1cnn(-c2ccccc2)c1` [A46, 3-(1-phenyl-1H-pyrazol-4-yl)-1H-[1,6]naphthyridin-2-one], the results for the IC50 on c-Kit(V654A) and on PDGFRalpha(V561D) were 370 nM and 150 nM, respectively.
For `COCCO[C@H]1CCN(C(=O)c2ccc(-n3cc(-c4cc5cc(F)ccc5[nH]c4=O)nn3)cc2)C1` [A251, 6-fluoro-3-(1-{4-[(S)-3-(2-methoxy-ethoxy)-pyrrolidine-1-carbonyl]-phenyl}-1H-[1,2,3]triazol-4-yl)-1H-quinolin-2-one], the IC50 at c-Kit(V654A) stood at 160 nM; on PDGFRalpha(V561D), 400 nM.
In the case of `CN1CCN(C(=O)c2ccc(-n3cc(-c4cc5c(F)cccc5[nH]c4=O)nn3)cc2)CC1` [A149, 5-fluoro-3-{1-[4-(4-methyl-piperazine-1-carbonyl)-phenyl]-1H-[1,2,3]triazol-4-yl}-1H-quinolin-2-one], the results for the IC50 on c-Kit(V654A) and at PDGFRalpha(V561D) were 6 nM and 12 nM, respectively.
For the compound `O=C(c1ccc(-n2cc(-c3cc4cccnc4[nH]c3=O)nn2)cc1)N1CCNCC1` [A121, 3-{1-[4-(piperazine-1-carbonyl)-phenyl]-1H-[1,2,3]triazol-4-yl}-1H-[1,8]naphthyridin-2-one], the values for the IC50 at c-Kit(V654A) and on PDGFRalpha(V561D) were 40 nM and 16 nM, respectively.
Turning to `CO[C@@H]1CCCN(C(=O)c2ccc(-n3cc(-c4cc5cc(F)ccc5[nH]c4=O)nn3)cc2)C1` [A194, 6-fluoro-3-{1-[4-((R)-3-methoxy-piperidine-1-carbonyl)-phenyl]-1H-[1,2,3]triazol-4-yl}-1H-quinolin-2-one], the figures for the IC50 on c-Kit(V654A) and at PDGFRalpha(V561D) were 49 nM and 91 nM, respectively.
The corresponding values for `CN(C)C[C@H]1CCCN1C(=O)c1ccc(-n2cc(-c3cc4cc(F)ccc4[nH]c3=O)cn2)cc1` [A325, 3-{1-[4-((R)-2-dimethylaminomethyl-pyrrolidine-1-carbonyl)-phenyl]-1H-pyrazol-4-yl}-6-fluoro-1H-quinolin-2-one] are 17 nM and 3.8 nM.
The corresponding values for `O=c1[nH]c2ccccc2cc1-c1cn(-c2cnc(N3CCNCC3)nc2)nn1` [A54, 3-[1-(2-piperazin-1-yl-pyrimidin-5-yl)-1H-[1,2,3]triazol-4-yl]-1H-quinolin-2-one] are 490 nM and 160 nM.
Consider `CN1CCC(NC(=O)c2ccc(-n3cc(-c4cc5ccccc5[nH]c4=O)nn3)cc2)CC1` [A58, N-(1-Methyl-piperidin-4-yl)-4-[4-(2-oxo-1,2-dihydro-quinolin-3-yl)-[1,2,3]triazol-1-yl]-benzamide], for which the IC50 amounted to 44 nM on c-Kit(V654A) and 21 nM at PDGFRalpha(V561D).
On the same counts, the results for `CN1CCN(CCOc2ccc(-n3cc(-c4cc5cc(F)ccc5[nH]c4=O)nn3)cc2)CC1` [A176, 6-fluoro-3-(1-{4-[2-(4-methyl-piperazin-1-yl)-ethoxy]-phenyl}-1H-[1,2,3]triazol-4-yl)-1H-quinolin-2-one] are 6.7 nM and 1.6 nM.
Regarding `COC[C@@H]1CCN(C(=O)c2ccc(-n3cc(-c4cc5cc(F)ccc5[nH]c4=O)nn3)cc2)C1` [A199, 6-fluoro-3-{1-[4-((R)-3-methoxymethyl-pyrrolidine-1-carbonyl)-phenyl]-1H-[1,2,3]triazol-4-yl}-1H-quinolin-2-one], the results for the IC50 at c-Kit(V654A) and at PDGFRalpha(V561D) were 16 nM and 22 nM, respectively.
For `COCCNC(=O)c1ccc(-n2cc(-c3cc4cccnc4[nH]c3=O)nn2)cc1` [A9, N-(2-methoxy-ethyl)-4-[4-(2-oxo-1,2-dihydro-[1,8]naphthyridin-3-yl)-[1,2,3]triazol-1-yl]-benzamide], the concentration for half-maximal inhibition (IC50) stood at 760 nM on c-Kit(V654A) and 230 nM on PDGFRalpha(V561D).
For `O=C(c1ccc(-n2cc(-c3cc4cc(F)c(F)cc4[nH]c3=O)nn2)cc1)N1CCC(N2CCCC2)C1` (centres unmarked) [A104, 3-{1-[4-([1,3′]bipyrrolidinyl-1′-carbonyl)-phenyl]-1H-[1,2,3]triazol-4-yl}-6,7-difluoro-1H-quinolin-2-one], the figures for the IC50 on c-Kit(V654A) and on PDGFRalpha(V561D) were 24 nM and 150 nM, respectively.
In the case of `CN(C)C(=O)c1ccc(-n2cc(-c3cc4cc(Cl)cnc4[nH]c3=O)nn2)cc1` [A11, 4-[4-(6-chloro-2-oxo-1,2-dihydro-[1,8]naphthyridin-3-yl)-[1,2,3]triazol-1-yl]-N,N-dimethyl-benzamide], the results for the IC50 at c-Kit(V654A) and at PDGFRalpha(V561D) were 220 nM and 26 nM, respectively.
For the compound `CN1C[C@@H]2CN(C(=O)c3ccc(-n4cc(-c5cc6cc(F)ccc6[nH]c5=O)nn4)cc3)C[C@@H]2C1` [A327, 6-fluoro-3-{1-[4-((cis)-5-methyl-hexahydro-pyrrolo[3,4-c]pyrrole-2-carbonyl)-phenyl]-1H-[1,2,3]triazol-4-yl}-1H-quinolin-2-one], the IC50 is 14 nM on c-Kit(V654A) and 220 nM at PDGFRalpha(V561D).
On to `CO[C@@H]1CN(C(=O)c2ccc(-n3cc(-c4cc5cc(F)ccc5[nH]c4=O)cn3)cc2)C[C@H]1OC` [A300, 3-{1-[4-((3R,4R)-3,4-dimethoxy-pyrrolidine-1-carbonyl)-phenyl]-1H-pyrazol-4-yl}-6-fluoro-1H-quinolin-2-one], for which the IC50 at c-Kit(V654A) was 68 nM; at PDGFRalpha(V561D), 0.76 nM.
For the compound `COCCOC[C@H]1CCN(C(=O)c2ccc(-n3cc(-c4cc5cc(F)ccc5[nH]c4=O)nn3)cc2)C1` [A236, 6-fluoro-3-(1-{4-[(S)-3-(2-methoxy-ethoxymethyl)-pyrrolidine-1-carbonyl]-phenyl}-1H-[1,2,3]triazol-4-yl)-1H-quinolin-2-one], the IC50 is 53 nM on c-Kit(V654A) and 560 nM at PDGFRalpha(V561D).
For the compound `CN1CCC(CNC(=O)c2ccc(-n3cc(-c4cc5cc(F)ccc5[nH]c4=O)nn3)cc2)CC1` [A22, 4-[4-(6-fluoro-2-oxo-1,2-dihydro-quinolin-3-yl)-[1,2,3]triazol-1-yl]-N-(1-methyl-piperidin-4-ylmethyl)-benzamide], the IC50 at c-Kit(V654A) is 27 nM; at PDGFRalpha(V561D), 6 nM.

The values above are taken from US11939314B2, “Quinolin-2-one derivatives” (MERCK PATENT GMBH, priority 2016, dated 2024).
